For data set [1], the system named is P. falciparum 3D7 Clone / 3D7 Parental. In words: SYBR Green dose response, cloned 3D7 control/parental lines of the resistance selection. It counts as cell-based, Plasmodium falciparum. The source says:
To assess whether we could use the DMSO melting curves previously established for […] by Dziekan et al. ([49]), we calculated the difference in melting temperatures (ΔTm) between our DMSO dataset and Dziekan’s for 364 proteins for which Tm values were confidently calculated by mineCETSA (table S6).
Fig. 4. […] (C) Schematic representation of the CRISPR-Cas9–based replacement strategy used to introduce a deletion of the targeted repeat regions in the PfSec13 gene. The insertion was achieved through overlap extension polymerase chain reaction (PCR) of fragments directly upstream and downstream of the target segment and subsequently formed by primer overlap extension PCR to replicate the desired deletion. […] (D) Predicted structure of the SEC13 protein highlighting the seven amino acid tandem repeat regions targeted for deletion (red). […] Data were analyzed using a Sigmoidal, 4PL (X represents concentration, n = 3, nonlinear regression, CI: 95%).
P. falciparum in vitro SYBR green fluorescence-based assays The anti-malarial activity of individual analogues were evaluated in-vitro against P. falciparum 3D7 (MRA-102, drug […]
green-I based fluorescence assay. Parasite growth rate and stages of development were determined via microscopy through Giemsa-stained smears of the cultures. Serial dilutions of the compounds ranging from 10uM-0.5nM were prepared in 96-well plates (Corning, Costar 3904) followed by […]
hematocrit added to each well. Eight wells were treated with vehicle control (DMSO) as control.
Plates were incubated in a modular incubation chamber (Billups-Rothenberg, Del Mar, CA)

In another data set the test system is HEK293. In words: Human cell line activity, HEK293. The conditions noted are these: HEK293, read-out: IC50 (µM) HEK293. It counts as cell-based.
Data set [2] concerns P. falciparum Pf3D70087/N9. In words: In vivo efficacy, standard 4-day test in humanized mouse model of P. falciparum malaria. Details: species or system NSG mice engrafted with human erythrocytes. To be noted: 50 mg/kg orally, once a day for 4 days, from day 3 after infection; by the seventh day.
Description: NOD scid gamma (NSG) mice were intravenously engrafted with human red blood cells (hRBCs) daily until the percentage of hRBCs reached ~50%, at which point the mice were infected with 2 × 10^7 P. falciparum–infected erythrocytes.
Peripheral blood from P. falciparum–infected mice was stained with TER-119-phycoerythrin (marker of murine erythrocytes) and SYTO-16 (nucleic acid dye) and then analyzed by flow cytometry (FACSCalibur, BD).
Plasmodium falciparum-infected erythrocytes (P. falciparum Pf3D70087/N9).
The mice were obtained from Charles River Labs, bred specifically for
research and certified pathogen free.
NSG mice were engrafted daily with human red blood cells intravenously injected in a final
volume of 0.7 ml (50% hematocrit). Mice were engrafted during two weeks prior to P. falciparum
infection, mice achieve around 60% of human red blood cells in mice peripheral blood.
P. falciparum infections were performed by intravenous inoculation. All mice were randomly
assigned to their corresponding treatment.
mg/kg per day for four consecutive days. […] In all cases, parasitemia was assessed in samples from peripheral blood obtained at days 3, 4, 5, 6, and 7 after infection. Fresh samples of peripheral blood from P. falciparum-infected mice were stained with TER-119-Phycoerythrine (marker of murine erythrocytes) and SYTO-16 (nucleic acid dye) and then analyzed by flow cytometry (FACSCalibur, BD).
Data set [3] can be described thus: Pharmacokinetics after oral administration to P. falciparum-infected mice (Table S10). It counts as in vivo, P. falciparum-infected SCID mice. To be noted: for Cmax: 50mg/kg oral in 1% Methylcellulose; for AUC(0-inf): read-out: AUCINF_obs. The procedure:
An Acquity ultra-performance liquid chromatography (UPLC) system (Waters Corp., Milford, MA, USA) couple to a triple quadrupole mass spectrometer (API 4000, AB Sciex, Foster City, CA, USA) was used for the analysis ([99]).
Blood concentration time data were analyzed by Non-Compartmental PK analysis using Phoenix WinNonlin software (Certara, NY, US) to calculate PK parameters. […]
mg/kg per day for four consecutive days. Treatment started at day 3 and finished at day 6 after infection. In all cases, parasitemia was assessed in samples from peripheral blood obtained at days 3, 4, 5, 6, and 7 after infection. Fresh samples of peripheral blood from P. falciparum-infected mice were stained with TER-119-Phycoerythrine (marker of murine erythrocytes) and SYTO-16 (nucleic acid dye) and then analyzed by flow cytometry (FACSCalibur, BD). Efficacy was determined using flow cytometry data as the percentage of Parasitemia reduction compared with […]
blood samples obtained during the 23 h period after the first dose in all mice. Peripheral blood samples (15 µL) were taken at frequent intervals, mixed with 30 µL of H2O milli Q and immediately frozen on dry ice. The frozen samples were stored at −80 °C until analysis. Vehicle-treated mice experienced the same blood-sampling regimen (table S9, S10).
Bioanalysis and pharmacokinetics analysis: LC-MS
Bioanalysis of in vivo samples: Sample pretreatment Before the analysis 15ul of blood samples were defrost at ambient temperature and mixture with 200ul of ACN:MeOH (80:20). After protein precipitation samples were filtered by 0.45um filter plate (Multiscreen Solvinert 0.45um FTPE, Millipore). The 2ul TFA (Trifluoroacetic acid, sigmaAldrich) were added to each filtered sample in order to derivatize the compound to formamide analogue. This process occurs spontaneously.
LC-MS analysis An Acquity Ultra-Performance liquid chromatography (UPLC) system (Waters Corp., Milford, MA, USA) couple to a triple quadrupole mass spectrometer (API 4000™, AB Sciex, Foster City, CA, USA) was used for the analysis. The MS/MS transition was 311.340 / […]
The chromatographic separation was carried out at 0.4ml/min in a Acquity UPLC™ BEH C18 column (50x2.1 mm i.d., […]; Waters Corp.) at 40 °C with Acetonitrile (sigmaAldrich) and 0.1% formic acid as eluents.
Pharmacokinetic analysis Blood concentration time data were analyzed by Non-Compartmental PK analysis using Phoenix WinNonlin software (Certara NY, US) to calculate PK parameters. The maximum observed concentration (Cmax) and the time to reach it (Tmax), were determined. The area under concentration-time curve from dosing at time zero to the last measured concentration […]
time (AUClast) and the total area under concentration-time curve from time zero extrapolated to infinity (AUCinf), were calculated using a linear trapezoidal rule. […]

Data set [4] deals with BSEP (bile salt export pump) (Homo sapiens, UniProt O95342). In words: Enhanced Cross Screen Panel (eXP): BSEP inhibition.
[5] abbreviates: 50mg/kg oral, infected mice, individual mice.
Setting [6] is: SCID, mouse, whole blood, po, 50 mg/kg, 50mg/kg oral, infected mice, Mean.
The mark [7] stands for this setting: SCID, mouse, whole blood, po, 50 mg/kg, 50mg/kg oral, infected mice, individual mice.

These results are taken from paper PMC11793105, “A kalihinol analog disrupts apicoplast function and vesicular trafficking in P. falciparum malaria” (Science (New York, N.Y.), 2024).

By pIC50 is commonly meant the negative decadic logarithm of the IC50, by convention in mol/L. In general, IC50 refers to the concentration that gives 50% inhibition. One may read the Cmax as the highest concentration seen after dosing. By AUC(0-t) is commonly meant exposure summed from dosing to a finite time, without extrapolation to infinity. What is called Tmax is the time from dosing to the highest level.

pIC50: −log10 of the molar value. Like-named read-outs stand apart in the source and are kept apart here.

Chain of BSEP (bile salt export pump) (O95342 whole entry, species assumed): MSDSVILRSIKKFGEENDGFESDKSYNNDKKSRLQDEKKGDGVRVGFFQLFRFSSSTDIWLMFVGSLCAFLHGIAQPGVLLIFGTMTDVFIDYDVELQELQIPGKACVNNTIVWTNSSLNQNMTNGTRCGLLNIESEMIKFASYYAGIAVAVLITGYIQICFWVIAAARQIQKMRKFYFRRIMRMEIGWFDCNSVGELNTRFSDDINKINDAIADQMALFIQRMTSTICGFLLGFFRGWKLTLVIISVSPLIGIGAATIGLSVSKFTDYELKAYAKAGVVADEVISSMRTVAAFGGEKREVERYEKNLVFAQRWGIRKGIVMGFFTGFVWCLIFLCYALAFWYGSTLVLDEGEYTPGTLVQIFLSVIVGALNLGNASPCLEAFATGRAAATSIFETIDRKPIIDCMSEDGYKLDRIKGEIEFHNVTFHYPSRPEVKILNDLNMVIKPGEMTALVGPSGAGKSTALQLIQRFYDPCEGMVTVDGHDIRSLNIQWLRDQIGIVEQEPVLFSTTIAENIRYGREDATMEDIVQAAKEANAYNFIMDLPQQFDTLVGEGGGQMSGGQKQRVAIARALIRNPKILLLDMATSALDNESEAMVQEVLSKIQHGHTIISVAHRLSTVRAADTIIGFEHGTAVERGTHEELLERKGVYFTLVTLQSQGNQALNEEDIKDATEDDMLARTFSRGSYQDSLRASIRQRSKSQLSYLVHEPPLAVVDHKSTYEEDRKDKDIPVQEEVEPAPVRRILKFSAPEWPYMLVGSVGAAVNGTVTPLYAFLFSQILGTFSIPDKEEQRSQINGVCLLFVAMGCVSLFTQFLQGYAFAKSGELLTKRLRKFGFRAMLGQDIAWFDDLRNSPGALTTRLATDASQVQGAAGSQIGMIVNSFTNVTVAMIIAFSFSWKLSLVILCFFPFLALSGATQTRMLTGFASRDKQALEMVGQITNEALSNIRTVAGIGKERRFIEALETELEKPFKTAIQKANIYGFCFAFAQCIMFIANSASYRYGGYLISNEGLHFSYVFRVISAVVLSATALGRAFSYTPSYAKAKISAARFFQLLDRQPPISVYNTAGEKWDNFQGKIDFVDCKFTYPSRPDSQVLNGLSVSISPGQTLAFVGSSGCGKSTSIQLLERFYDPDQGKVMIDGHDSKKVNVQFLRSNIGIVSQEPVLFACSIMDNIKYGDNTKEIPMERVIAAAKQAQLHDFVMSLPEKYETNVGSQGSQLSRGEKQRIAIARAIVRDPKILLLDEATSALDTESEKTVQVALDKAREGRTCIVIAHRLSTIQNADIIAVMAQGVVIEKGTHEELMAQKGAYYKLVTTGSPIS

As to `[C-]#[N+][C@]1(C)CC[C@H]2[C@@H]([C@@H](C(C)C)CC[C@]2(C)[N+]#[C-])[C@H]1O` [MED6-189], the negative-log IC50 (pIC50) in data set [1] (3D7 Parental, drug-sensitive parental line) is 7.82; in data set [1] (Plasmodium falciparum, 3D7, 3D7 Clone (drug sensitive)) it was 7.89; in data set [1] (Plasmodium falciparum, 3D7, 3D7 Parental, drug-sensitive parental line), about 7.85; in data set [4], 4.30. In addition, the IC50 in the data set on HEK293 is 28 µM. Besides, the “reduction in parasitemia in the peripheral blood” value in data set [2] is recorded as over 90%. In data set [3] (50 mg/kg oral every 24h, four days), the “accumulation in blood (levels at 96 hrs)” value was “no accumulation”. Also, the Cmax turned out to be 8980 ng/mL in data set [3] (infected mice, individual mice 1 and 2); 7920 ng/mL in data set [3] (SCID, mouse, whole blood, po, 50 mg/kg, infected mice, Mean, read-out: Cmax); 6860 ng/mL in data set [3] (SCID, mouse, whole blood, po, 50 mg/kg, infected mice, individual mice 1 and 2, read-out: Cmax). In addition, the Tlast in data set [3] (50mg/kg oral, infected mice, Mean) amounted to 24 h; in data set [3] (setting [5]), 24 h. Also, the AUCINF_obs in data set [3] (setting [5]) came to 115.877 µg·h/mL. The AUClast in data set [3] (setting [5]) was determined as 114.617 µg·h/mL. In addition, the AUC(0-t) in data set [3] (setting [6]) amounted to 101 µg·h/mL; in data set [3] (setting [7]) it was 86.8 µg·h/mL. The AUC(0-inf) came to 105 µg·h/mL in data set [3] (setting [6]) and 94.1 µg·h/mL in data set [3] (setting [7]). For the same molecule, the time of peak concentration (Tmax) in data set [3] (SCID, mouse, whole blood, 50mg/kg oral, infected mice, individual mice) turned out to be 7 h.
